Laboratory results as given in ChEMBL document CHEMBL1159193, “Synthesis and in vitro anti-human immunodeficiency virus activity of artemisinin (qinghaosu)-related trioxanes” (Bioorg Med Chem Lett, 1994).

How the values were obtained:
[1] = In vitro cytotoxicity assessed by measuring [3H]-thymidine uptake in human peripheral blood mononuclear (PBM) cells; assay type: functional
[2] = In vitro anti-HIV activity in human peripheral blood mononuclear (PBM) cells acutely infected with HIV-1 LAI; assay type: functional

COC(=O)c1ccc([C@H]2OOC3(CCC[C@@H](C)C3)[C@@H](OC)O2)cc1 (some centres undefined)
IC50 [1]: > 100 µM | EC50 [2]: > 100 µM

C[C@@H]1CC[C@H]2[C@@H](C)CO[C@@H]3O[C@]4(C)CC[C@@H]1[C@]32OO4 [DEOXOARTEMISININ]
IC50 [1]: > 100 µM | EC50 [2]: > 100 µM

CCCC[C@H]1O[C@@H]2O[C@]3(C)CC[C@H]4[C@H](C)CC[C@@H]([C@H]1C)[C@@]24OO3
IC50 [1]: 1.3 µM | EC50 [2]: 4.7 µM

C[C@@H]1CC[C@H]2[C@@H](C)C(=O)O[C@@H]3O[C@@]4(C)CC[C@@H]1[C@]32OO4 [ARTEMISININ]
IC50 [1]: > 100 µM | EC50 [2]: > 100 µM

Cc1cn([C@H]2C[C@H](N=[N+]=[N-])[C@@H](CO)O2)c(=O)[nH]c1=O [ZIDOVUDINE]
IC50 [1]: > 100 µM | EC50 [2]: 0.004 µM

C[C@@H]1CC[C@H]2[C@@H](C)CCO[C@@H]3O[C@]4(C)CC[C@@H]1[C@]32OO4
IC50 [1]: > 100 µM | EC50 [2]: 50.2 µM

CCO[C@H]1O[C@@H]2O[C@@]3(C)CC[C@H]4[C@H](C)CC[C@@H]([C@H]1C)[C@@]24OO3 [ARTEMOTIL]
IC50 [1]: 30.9 µM | EC50 [2]: 41.2 µM
